For this experiment, the target named is T1, androgen receptor (Homo sapiens, UniProt P10275, T878A).
T1 construct: host or cells: LNCaP.FGC
The experiment can be described thus: Androgen receptor degradation assay using Western blot analysis. The experiment is classed as cell-based. How it is done:
Cells not treated with any of the above-mentioned compounds are used as a negative control.
The internal loading control GAPDH was detected using a mouse monoclonal antibody (1:5000) (GTX627408, GeneTex International Corp., HsinChu City, Taiwan R.O.C.) and a goat anti-mouse HRP-conjugated secondary antibody (1:5000 dilution) (C04001, Croyez Bioscience Co., Ltd., Taipei City, Taiwan R.O.C.).
AR remaining percentage was determined by the intensity difference of AR signals (each was normalized by the corresponding internal loading control GAPDH) between the protein samples from the untreated cells (100%) and those from the treated cells. “Cpd. #” indicates the compound number hereinabove.
In addition, several compounds were selected to prepare a treatment stock solutions at 100 nM in RPMI medium. The treatment stock solutions were separately serially diluted (10×) with RPMI medium for treating LNCaP.FGC cells seeded with 2×10^5 cells per well in 24-well tissue culture plates. A calibration curve was determined by the serial diluted samples for each compound, and the concentration needed for 50% AR degradation (AR DC50) for each compound was calculated.

Where [1] appears, read: 24 h, LNCaP.FGC cells, 100 nM, 24 hr, normalized to GAPDH, untreated cells = 100%; read-out: Androgen Receptor Remaining (%).
Where [2] appears, read: 24 h, read-out: Androgen Receptor Remaining (%), LNCaP.FGC cells, 100 nM, 24 hr, normalized to GAPDH, untreated cells = 100%.
[3] abbreviates: read-out: AR DC50 (concentration needed for 50% AR degradation); LNCaP.FGC cells, serial 10x dilutions from 100 nM.
The mark [4] stands for this setting: LNCaP.FGC cells, serial 10x dilutions from 100 nM; read-out: AR DC50 (concentration needed for 50% AR degradation).

Read-outs that look alike come from different tables or passages of the source.

T1 sequence (P10275 whole entry T878A): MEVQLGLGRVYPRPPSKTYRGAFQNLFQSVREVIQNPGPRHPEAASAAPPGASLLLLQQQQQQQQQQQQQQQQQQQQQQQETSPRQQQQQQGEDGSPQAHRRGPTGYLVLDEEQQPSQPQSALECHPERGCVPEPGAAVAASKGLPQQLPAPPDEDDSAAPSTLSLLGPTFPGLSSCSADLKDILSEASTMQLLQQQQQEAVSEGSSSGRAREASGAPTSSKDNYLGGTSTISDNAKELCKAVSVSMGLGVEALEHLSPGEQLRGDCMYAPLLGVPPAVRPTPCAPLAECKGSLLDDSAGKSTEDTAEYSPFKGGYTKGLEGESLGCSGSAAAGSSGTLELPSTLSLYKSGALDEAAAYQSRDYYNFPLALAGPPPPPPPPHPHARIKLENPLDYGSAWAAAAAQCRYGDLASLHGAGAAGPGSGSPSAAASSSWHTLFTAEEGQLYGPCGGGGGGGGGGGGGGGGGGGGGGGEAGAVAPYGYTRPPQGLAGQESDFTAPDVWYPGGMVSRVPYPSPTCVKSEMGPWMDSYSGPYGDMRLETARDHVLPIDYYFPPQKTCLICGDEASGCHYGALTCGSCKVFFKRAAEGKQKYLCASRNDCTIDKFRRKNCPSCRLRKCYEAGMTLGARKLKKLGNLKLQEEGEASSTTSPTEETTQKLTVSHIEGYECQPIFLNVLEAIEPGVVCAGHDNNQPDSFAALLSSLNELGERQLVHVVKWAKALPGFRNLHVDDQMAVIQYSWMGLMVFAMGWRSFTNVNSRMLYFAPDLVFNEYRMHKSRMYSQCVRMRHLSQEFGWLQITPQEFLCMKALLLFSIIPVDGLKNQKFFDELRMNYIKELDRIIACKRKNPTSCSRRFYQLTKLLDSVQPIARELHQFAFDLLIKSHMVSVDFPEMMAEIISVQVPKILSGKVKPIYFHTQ
T1 sequence (Q96SW2 whole entry partner): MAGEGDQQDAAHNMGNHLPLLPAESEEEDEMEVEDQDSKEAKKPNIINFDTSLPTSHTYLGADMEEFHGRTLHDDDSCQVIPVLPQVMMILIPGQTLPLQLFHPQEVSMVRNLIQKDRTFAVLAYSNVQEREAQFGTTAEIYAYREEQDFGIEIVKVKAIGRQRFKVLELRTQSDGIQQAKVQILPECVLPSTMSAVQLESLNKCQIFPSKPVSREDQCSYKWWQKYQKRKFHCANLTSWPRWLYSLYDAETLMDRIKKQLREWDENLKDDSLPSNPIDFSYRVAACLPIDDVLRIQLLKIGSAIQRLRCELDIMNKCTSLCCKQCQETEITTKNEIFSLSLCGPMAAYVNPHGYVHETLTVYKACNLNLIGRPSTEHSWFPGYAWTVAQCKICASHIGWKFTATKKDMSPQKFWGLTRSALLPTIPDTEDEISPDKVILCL

For the molecule `Cn1c2c(c3cccc(OCCCN4CCN(c5ccc(C(=O)N[C@H]6C(C)(C)[C@H](Oc7ccc(C#N)c(Cl)c7)C6(C)C)cc5)CC4)c31)C(=O)N(C1CCC(=O)NC1=O)C2=O` (stereo partly drawn) [Compound 25], the remaining activity at 0.1 µM under setting [1] was found to be 80%.
Regarding `CCn1c2c(c3ccc(OCCCN4CCC5(C4)CN(c4ccc(C(=O)N[C@H]6CC[C@H](Oc7ccc(C#N)c(Cl)c7)CC6)nn4)C5)cc31)C(=O)N(C1CCC(=O)NC1=O)C2=O` (stereo partly drawn) [Compound 160], the remaining activity at 0.1 µM under setting [2] was found to be 17%. Also, the DC50 under setting [3] is below 10 nM.
In the case of `CCn1c2c(c3ccc(OC4CCN(CC5CCN(c6ccc(C(=O)N[C@H]7C(C)(C)[C@@H](Oc8ccc(C#N)c(Cl)c8)C7(C)C)nn6)CC5)CC4)cc31)C(=O)N(C1CCC(=O)NC1=O)C2=O` (stereo partly drawn) [Compound 213], the DC50 under setting [3] is 10 to 25 nM.
For `CCn1c2c(c3ccc(OCCCN4CCN(c5ccc(C(=O)N[C@H]6CC[C@H](N(C)c7ccc(C#N)c(Cl)c7)CC6)nn5)CC4)cc31)C(=O)N(C1CCC(=O)NC1=O)C2=O` (stereo partly drawn) [Compound 78], the remaining activity at 0.1 µM under setting [2] turned out to be 57%. Also, the DC50 under setting [3] was 10 to 25 nM.
On to `CCn1c2c(c3ccc(OCCN4CC=C(c5ccc(C(=O)N[C@H]6CC[C@H](Oc7ccc(C#N)c(Cl)c7)CC6)nn5)CC4)cc31)C(=O)N(C1CCC(=O)NC1=O)C2=O` (stereo partly drawn) [Compound 191], for which the DC50 under setting [3] was below 10 nM.
In the case of `CC1(C)[C@H](NC(=O)c2ccc(N3CCN(CCCOc4ccc5c6c(sc5c4)C(=O)N(C4CCC(=O)NC4=O)C6=O)CC3)cn2)C(C)(C)[C@H]1Oc1ccc(C#N)c(Cl)c1` (stereo partly drawn) [Compound 14], the remaining activity at 0.1 µM under setting [1] came out at 70%.
Consider `CCn1c2c(c3ccc(OCC(=O)N4CCCN(c5ccc(C(=O)N[C@H]6CC[C@H](N(C)c7ccc(C#N)c(Cl)c7)CC6)nn5)CC4)cc31)C(=O)N(C1CCC(=O)NC1=O)C2=O` (stereo partly drawn) [Compound 131], for which the remaining activity at 0.1 µM under setting [2] worked out at 51%.
As to `Cn1c2c(c3ccc(OCCOC4CC5(CCN(c6ccc(C(=O)N[C@H]7CC[C@H](Oc8ccc(C#N)c(Cl)c8)CC7)nn6)C5)C4)cc31)C(=O)N(C1CCC(=O)NC1=O)C2=O` (stereo partly drawn) [Compound 174], the DC50 under setting [4] is 25 to 100 nM.
In the case of `Cn1c2c(c3ccc(OC4CCN(CC5CCN(c6ccc(C(=O)N[C@H]7CC[C@H](Oc8ccc(C#N)c(Cl)c8)CC7)nn6)CC5)CC4)cc31)C(=O)N(C1CCC(=O)NC1=O)C2=O` (stereo partly drawn) [Compound 215], the DC50 under setting [4] lay in the range of 10 to 25 nM.
In the case of `Cn1c2c(c3ccc(OC4CCN(CC5CCN(c6ncc(C(=O)N[C@H]7CC[C@H](Oc8ccc(C#N)c(Cl)c8)CC7)cn6)CC5)CC4)cc31)C(=O)N(C1CCC(=O)NC1=O)C2=O` (stereo partly drawn) [Compound 28], the DC50 under setting [4] lay within 25 to 100 nM.
On to `CCn1c2c(c3ccc(OCC(=O)N4CCN(c5ccc(C(=O)N[C@H]6CC[C@H](Oc7ccc(C#N)c(Cl)c7)CC6)nn5)CC4)cc31)C(=O)N(C1CCC(=O)NC1=O)C2=O` (stereo partly drawn) [Compound 121], for which the remaining activity at 0.1 µM under setting [2] came to 48%. Also, the DC50 under setting [3] lay within 25 to 100 nM.
On to `CCn1c2c(c3ccc(OCCCN4CCN(c5ccc(C(=O)N[C@H]6CC[C@H](Oc7ccc(C#N)c(Cl)c7)CC6)cc5)CC4)cc31)C(=O)N(C1CCC(=O)NC1=O)C2=O` (stereo partly drawn) [Compound 27], for which the remaining activity at 0.1 µM under setting [2] was determined as 107%.
For the molecule `CCn1c2c(c3ccc(OCCCN4CC=C(c5ccc(C(=O)N[C@H]6CC[C@H](N(C)c7ccc(C#N)c(Cl)c7)CC6)nn5)CC4)cc31)C(=O)N(C1CCC(=O)NC1=O)C2=O` (stereo partly drawn) [Compound 201], the DC50 under setting [3] is 10 to 25 nM.
On to `CCn1c2c(c3ccc(OCCCCN4CCCN(c5ccc(C(=O)N[C@H]6CC[C@H](Oc7ccc(C#N)c(Cl)c7)CC6)nn5)CC4)cc31)C(=O)N(C1CCC(=O)NC1=O)C2=O` (stereo partly drawn) [Compound 90], for which the remaining activity at 0.1 µM under setting [2] was 28%. The DC50 under setting [3] lay within 25 to 100 nM.
For the molecule `CCn1c2c(c3ccc(OCCN4CCC5(CC4)CN(c4ccc(C(=O)N[C@H]6C(C)(C)[C@H](Oc7ccc(C#N)c(Cl)c7)C6(C)C)nn4)C5)cc31)C(=O)N(C1CCC(=O)NC1=O)C2=O` (stereo partly drawn) [Compound 51], the remaining activity at 0.1 µM under setting [2] came out at 20%. For the same molecule, under setting [3], the DC50 lay within 25 to 100 nM.
As to `CCn1c2c(c3ccc(OCC(=O)N4CCN(c5ccc(C(=O)N[C@H]6CC[C@H](N(C)c7ccc(C#N)c(Cl)c7)CC6)nn5)CC4)cc31)C(=O)N(C1CCC(=O)N(CO)C1=O)C2=O` (stereo partly drawn) [Compound 124], under setting [2], the remaining activity at 0.1 µM was 57%.
For `CCn1c2c(c3ccc(OCCCN4CCN(c5ccc(C(=O)N[C@H]6CC[C@H](Oc7ccc(C#N)c(Cl)c7)CC6)nn5)[C@H](C)C4)cc31)C(=O)N(C1CCC(=O)NC1=O)C2=O` (stereo partly drawn) [Compound 98], the remaining activity at 0.1 µM under setting [2] came to 26%. Also, under setting [3], the DC50 lay within 25 to 100 nM.
For `CCn1c2c(c3ccc(OCCN4CCN(c5cnc(C(=O)N[C@H]6CC[C@H](Oc7ccc(C#N)c(Cl)c7)CC6)cn5)CC4)cc31)C(=O)N(C1CCC(=O)NC1=O)C2=O` (stereo partly drawn) [Compound 62], under setting [2], the remaining activity at 0.1 µM came to 65%.
Regarding `CCn1c2c(c3ccc(OCCCC4CCN(c5ccc(C(=O)N[C@H]6CC[C@H](N(C)c7ccc(C#N)c(Cl)c7)CC6)nn5)CC4)cc31)C(=O)N(C1CCC(=O)NC1=O)C2=O` (stereo partly drawn) [Compound 165], the remaining activity at 0.1 µM under setting [2] is 77%.
In the case of `CC(COc1ccc2c3c(n(C)c2c1)C(=O)N(C1CCC(=O)NC1=O)C3=O)CN1CCN(c2ccc(C(=O)N[C@H]3CC[C@H](N(C)c4ccc(C#N)c(Cl)c4)CC3)nn2)CC1` (stereo partly drawn) [Compound 189], under setting [3], the DC50 lay in the range of 10 to 25 nM.
`CCn1c2c(c3ccc(OCCC4CCN(c5ccc(C(=O)N[C@H]6CC[C@H](N(C)c7ccc(C#N)c(Cl)c7)CC6)nn5)CC4)cc31)C(=O)N(C1CCC(=O)NC1=O)C2=O` (stereo partly drawn) [Compound 140]: the remaining activity at 0.1 µM under setting [2] was 32%. The DC50 under setting [3] was 25 to 100 nM.
As to `Cn1c2c(c3ccc(NC(=O)CN4CCN(c5ccc(C(=O)N[C@H]6C(C)(C)[C@H](Oc7ccc(C#N)c(Cl)c7)C6(C)C)nn5)CC4)cc31)C(=O)N(C1CCC(=O)NC1=O)C2=O` (stereo partly drawn) [Compound 50], the remaining activity at 0.1 µM under setting [1] was 45%. Also, the DC50 under setting [4] lay within 25 to 100 nM.
On to `CCn1c2c(c3ccc(OCCCCOC4CCN(c5ccc(C(=O)N[C@H]6CC[C@H](Oc7ccc(C#N)c(Cl)c7)CC6)nn5)CC4)cc31)C(=O)N(C1CCC(=O)NC1=O)C2=O` (stereo partly drawn) [Compound 185], for which the DC50 under setting [3] fell in the range of 25 to 100 nM.
Take `CN(c1ccc(C#N)c(Cl)c1)[C@H]1CC[C@H](NC(=O)c2ccc(N3CCN(CCOc4ccc5c6c(n(CC(F)F)c5c4)C(=O)N(C4CCC(=O)NC4=O)C6=O)CC3)nn2)CC1` (stereo partly drawn) [Compound 104]: the remaining activity at 0.1 µM under setting [2] turned out to be 42%. The DC50 under setting [3] was 25 to 100 nM.
On the same counts, the results for `CN(c1ccc(C#N)c(Cl)c1)[C@H]1CC[C@H](NC(=O)c2ccc(N3CCN(CCCOc4ccc5c6c(n(CC(F)F)c5c4)C(=O)N(C4CCC(=O)NC4=O)C6=O)CC3)nn2)CC1` (stereo partly drawn) [Compound 83] are 41% and 10 to 25 nM.
Consider `CCn1c2c(c3ccc(OCCCN4CCN(c5ccc(C(=O)N[C@H]6CC[C@H](Oc7ccc(C#N)c(Cl)c7)CC6)nn5)CC4)cc31)C(=O)N([C@H]1CCC(=O)NC1=O)C2=O` [Compound 63], for which the DC50 under setting [3] lay within 10 to 25 nM.
`CCn1c2c(c3ccc(OCCCN4CCCN(c5ccc(C(=O)N[C@H]6C(C)(C)[C@H](Oc7ccc(C#N)c(Cl)c7)C6(C)C)nn5)CC4)cc31)C(=O)N(C1CCC(=O)NC1=O)C2=O` (stereo partly drawn) [Compound 54]: the remaining activity at 0.1 µM under setting [2] was 72%.
`CCn1c2c(c3ccc(OCC(=O)N4CCC5(CCN(c6ccc(C(=O)N[C@H]7CC[C@H](Oc8ccc(C#N)c(Cl)c8)CC7)nn6)C5)C4)cc31)C(=O)N(C1CCC(=O)N(CO)C1=O)C2=O` (stereo partly drawn) [Compound 135]: the remaining activity at 0.1 µM under setting [2] was found to be 17%. In addition, the DC50 under setting [3] was in the range of 25 to 100 nM.
For `CCn1c2c(c3ccc(OCCCN4CCN(c5cnc(C(=O)N[C@H]6CC[C@H](Oc7ccc(C#N)c(Cl)c7)CC6)cn5)CC4)cc31)C(=O)N(C1CCC(=O)NC1=O)C2=O` (stereo partly drawn) [Compound 61], under setting [2], the remaining activity at 0.1 µM was 96%.
With `CCn1c2c(c3ccc(OCCOCC4CCN(c5ccc(C(=O)N[C@H]6CC[C@H](Oc7ccc(C#N)c(Cl)c7)CC6)nn5)CC4)cc31)C(=O)N(C1CCC(=O)NC1=O)C2=O` (stereo partly drawn) [Compound 138], the remaining activity at 0.1 µM under setting [2] was determined as 39%. For the same molecule, the DC50 under setting [3] lay in the range of 25 to 100 nM.
On to `CCn1c2c(c3ccc(OCCOC4CC5(CCN(c6ccc(C(=O)N[C@H]7CC[C@H](Oc8ccc(C#N)c(Cl)c8)CC7)nn6)C5)C4)cc31)C(=O)N(C1CCC(=O)NC1=O)C2=O` (stereo partly drawn) [Compound 162], for which the remaining activity at 0.1 µM under setting [2] is 29%. The DC50 under setting [3] was in the range of 25 to 100 nM.
Regarding `CCn1c2c(c3ccc(OCC(=O)N4CCN(c5ccc(C(=O)N[C@H]6CC[C@H](N(C)c7ccc(C#N)c(Cl)c7)CC6)nn5)CC4)cc31)C(=O)N(C1CCC(=O)NC1=O)C2=O` (stereo partly drawn) [Compound 125], under setting [2], the remaining activity at 0.1 µM was 57%.
In the case of `CCn1c2c(c3ccc(OCC(C)CN4CCN(c5ccc(C(=O)N[C@H]6CC[C@H](N(C)c7ccc(C#N)c(Cl)c7)CC6)nn5)CC4)cc31)C(=O)N(C1CCC(=O)NC1=O)C2=O` (stereo partly drawn) [Compound 193], the DC50 under setting [3] lay in the range of 25 to 100 nM.
For the molecule `CCCn1c2c(c3ccc(OCCCN4CCN(c5ccc(C(=O)N[C@H]6C(C)(C)[C@H](Oc7ccc(C#N)c(Cl)c7)C6(C)C)cc5)CC4)cc31)C(=O)N(C1CCC(=O)NC1=O)C2=O` (stereo partly drawn) [Compound 23], the remaining activity at 0.1 µM under setting [2] was found to be 88%.
`Cn1c2c(c3ccc(NC(=O)CN4CCN(c5ccc(C(=O)N[C@H]6CC[C@H](Oc7ccc(C#N)c(Cl)c7)CC6)cn5)CC4)cc31)C(=O)N(C1CCC(=O)NC1=O)C2=O` (stereo partly drawn) [Compound 66]: the remaining activity at 0.1 µM under setting [1] stood at 100%.

Values taken from patent US20250197409A1, “BIFUNCTIONAL COMPOUND AND PHARMACEUTICAL COMPOSITION COMPRISING THE BIFUNCTIONAL COMPOUND, AND METHOD FOR TREATING ANDROGEN RECEPTOR RELATED DISEASE BY USING THE SAME” (ANHORN MEDICINES CO., LTD., priority 2022, published 2025).
